What was measured:
Bortezomib = compound: CC(C)C[C@H](NC(=O)[C@H](Cc1ccccc1)NC(=O)c1cnccn1)B(O)O [Bortezomib]; test: relative viability (nuclei count vs DMSO), 5 days (fraction); higher = more cells survive
Outline: (§1)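 Hoechst staining, done together with fixation and permeabilisation, marked nuclei for 4× imaging and MetaXpress counting. This followed 5 days without medium change after lung cancer cell lines, kept overnight at 37 °C in 1536-well plates, were pinned with five library-drug doses (not always all listed) spaced by √10 on vehicle-anchored plates. Viability is the ratio of treated-well to vehicle-well nuclei, expressed as a median across plates. Plates passed only at control CV below 25% with at least one doubling.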

Obatoclax = compound: COC1=CC(c2cc3ccccc3[nH]2)=N/C1=C\c1[nH]c(C)cc1C [Obatoclax]; test: as above
Outline: as §1

Cell Line | relative viability (Bortezomib; 0.0002 µM) | relative viability (Bortezomib; 0.000632 µM) | relative viability (Bortezomib; 0.002 µM) | relative viability (Bortezomib; 0.002 µM, anchor plate) | relative viability (Bortezomib; 0.006325 µM) | relative viability (Bortezomib; 0.02 µM) | relative viability (Obatoclax; 0.01 µM) | relative viability (Obatoclax; 0.03162 µM) | relative viability (Obatoclax; 0.1 µM) | relative viability (Obatoclax; 0.3162 µM) | relative viability (Obatoclax; 1 µM)
HARA | 0.937 | 0.888 | 0.902 | 1.11 | 0.374 | 0.0946 | 0.947 | 0.956 | 1.01 | 0.908 | 0.827
HCC-15 | 0.909 | 1.07 | 0.996 | 1.01 | 0.549 | 0.0945 | 0.975 | 0.948 | 0.842 | 1.05 | 0.816
HCC-44 | 0.95 | 0.968 | 0.987 | 0.895 | 0.869 | 0.173 | 1.01 | 0.953 | 0.827 | 0.929 | 0.755
HCC-78 | 0.874 | 0.901 | 0.815 | 0.52 | 0.512 | 0.329 | 1.09 | 0.866 | 0.891 | 0.771 | 1.02
HCC-366 | 1.03 | 0.974 | 1.05 | 1.02 | 1.01 | 0.045 | 1 | 1.05 | 1.02 | 1.01 | 0.744
HCC-827 | 1.06 | 1.04 | 1.05 | 1.05 | 0.738 | 0.165 | 0.97 | 0.957 | 0.946 | 1.05 | 0.979
HOP-62 | 1.02 | 0.985 | 0.925 | 0.791 | 0.477 | 0.076 | 1.01 | 0.985 | 0.889 | 1.02 | 1.05
IA-LM | 0.871 | 0.991 | 0.833 | 0.817 | 0.0932 | 0.0256 | 0.93 | 0.935 | 0.854 | 0.625 | 0.203
LC-2-ad | 0.877 | 0.815 | 0.99 | 1.01 | 0.257 | 0.198 | 0.988 | 0.988 | 0.81 | 0.896 | 0.564
LCLC-97TM1 | 0.943 | 0.729 | 1.08 | 0.744 | 0.439 | 0.118 | 0.988 | 0.801 | 1.31 | 0.856 | 0.908
LCLC-103H | 0.982 | 0.94 | 1.01 | 1.05 | 0.92 | 0.278 | 0.978 | 0.894 | 0.926 | 0.965 | 1.08
LK-2 | 0.841 | 0.89 | 0.647 |  | 0.209 | 0.182 | 1.03 | 1.01 | 1.17 | 0.932 | 1.11
LOU-NH91 | 0.828 | 0.825 | 0.497 | 0.518 | 0.307 | 0.365 | 0.974 | 0.932 | 0.68 | 0.853 | 0.854
LU99A |  | 0.737 | 1.03 | 1.14 | 0.797 | 0.303 | 0.925 | 0.963 | 0.622 | 0.922 | 0.364
LXF-289 | 0.987 | 0.999 | 1.04 | 0.994 | 0.185 | 0.0884 | 0.97 | 1.03 | 0.989 | 0.982 | 0.951
NCI-H23 | 0.777 | 0.72 | 0.995 | 1.09 | 0.294 | 0.134 | 1.01 | 0.853 | 0.832 | 0.761 | 0.389

From the supplement of paper PMC10307832
